In brackets after ≈: the same amount, converted by molar mass. Entries after “also recorded” stand apart in the source; their conditions may differ.
Experiments:
[1] = test system: Acinetobacter lwoffii (ATCC 15309); assay: FISH-RiboSyn of antibiotic treated batch cultures (dF/dt); type: cell-based; parameters: ratio of dF/dt compared to the control: concentration or dose not given beside the values; details: for effect on ribosome synthesis: in words
Description: Acinetobacter lwoffii (ATCC 15309) was cultured on nutrient agar plates inoculated from a frozen glycerol/bead stock. After incubation for 24 hours at 32° C., a single colony was removed from the plate with a sterile loop and streaked on a second nutrient agar plate. The sterile loop was then submerged in a test tube containing 10 mL of […] which was incubated for 12 hours and 1 mL of grown culture was added to 1 mL of 4% paraformaldehyde (PFA) and incubated for 1 hour. The sample was then centrifuged at 10,000 G for 5 minutes, the supernatant decanted, and the cell pellet resuspended in ethanol PBS. Fluorescence in situ hybridization (FISH) with a genus specific probe was performed on this sample to verify culture purity before proceeding with the experiment. After culture purity was verified, the plated culture was incubated for 24 hours and a single colony was picked with a sterile loop and transferred to a 10 mL test tube of nutrient broth and incubated for 14 hours. The primary culture for this experiment was inoculated by transferring 1 mL from the test tube to a 100 mL nutrient broth flask. The optical density (OD at wavelength of 600 nm) of the culture was monitored over time until OD=0.449. At this time 10 mL of culture was transferred to four separate flasks containing 90 mL of nutrient broth and an appropriate amount of antibiotic. […] (Wisplinghoff et al. (2000)). Flask 4 was untreated as a control culture. At the same time, 9 mL of the primary culture was added to a 50 mL conical containing 1 mL of 1 mg/mL chloramphenicol for a final concentration of 100 μg/mL. Samples of 1 mL were taken from the chloramphenicol treated cell culture at 0, 5, 10, 15, and 20 minutes and incubated in 1 mL of 4% PFA for at least one hour. These samples were then centrifuged at 10,000 G for 5 minutes, the supernatant decanted and cell pellets resuspended in ethanol PBS and stored at −20° C. until evaluated by FISH.
A dilution series of a growing culture of A. lwoffii was previously used to determine the relationship between OD (at 600 nm) and CFU/mL by plating diluted samples on nutrient agar plates at various values of OD and performing plate counts.
Treated flasks were allowed to incubate for 30 minutes and which time 9 mL of the primary culture was added to a 50 mL conical containing 1 mL of 1 mg/mL chloramphenicol for a final concentration of 100 μg/mL. Samples of 1 mL were taken from the chloramphenicol treated cell culture at 0, 5, 10, 15, and 20 minutes and incubated in 1 mL of 4% PFA for at least one hour. These samples were then centrifuged at 10,000 G for 5 minutes, the supernatant decanted and cell pellets resuspended in ethanol PBS and stored at −20° C. until evaluated by FISH. This was repeated for each flask at 90, 150, and 210 minutes of incubation with the antibiotic.
All images were analyzed using the Image-Pro Plus (v6.2.0.424) software package. Only single cells or diplococci were included in analysis. Images were thresholded using the “Automatic Bright Objects” option in the measurement console. Occasionally this algorithm excluded dim objects if bright objects were present. In these cases the manual thresholding was used to find the optimal thresholding range. […] The highest size threshold used for these cells was 5,000 pixels^2.

A. baumannii^T [2] = assay: FISH-RiboSyn antibiotic susceptibility testing (rate of ribosome synthesis, pre-16S rRNA); type: cell-based, Acinetobacter baumannii; details: for initial mean whole cell fluorescence: prior to chloramphenicol, 8-bit intensity
Description: (§1) Sample collection. When it was observed that a culture was in mid-log growth phase (OD of approximately 0.4) 50 mL of the culture was transferred to a sterile flask and subjected to chloramphenicol at a final concentration of 200 mg/L. Samples (1 mL) were collected from the sub-culture every five minutes (including a sample at time zero) for a total of 20 minutes. Each sample was centrifuged at 10,000 G for 2 minutes, the supernatant was decanted, and the resulting cell pellet was resuspended in 1 mL of 4% PFA for 12-24 hours. The samples were centrifuged and supernatant decanted, as previously described, and resuspended in 2 mL of ethanol PBS (EtOH-PBS). The samples were stored at −20° C. until further analysis.
(§2) To test the effects of the antibiotic doxycycline, doxycycline (Fisher Scientific) stock solution (1 mg/mL) was added to 100-mL of fresh, sterile nutrient broth for a final concentration of 8 μg/mL. A sample from an actively growing culture (10 mL) was added to the doxycycline/nutrient broth for a final volume of 110 mL. The aforementioned transfers were performed for both the resistant strain A. baumannii CBD1311 (OD=0.378) and a susceptible strain A. baumannii^T (OD=0.324). […] Transfers were performed for A. baumannii CBD1311 (OD=0.338) and A. baumannii^T (OD=0.365) and the dilutions were sufficient to ensure that the culture was below a McFarland standard of 0.5. Additionally, controls were implemented for each transfer where an additional 10 mL of the appropriate culture was combined with 100 mL of fresh sterile nutrient broth without an antibiotic. All cultures were incubated at 32° C. and shaken continuously (200 rpm).
(§3) A fluorescently-labeled oligonucleotide hybridization probe, Acin1543, targeting the pre-16S rRNA for members of the genus Acinetobacter was synthesized (5′-[…]-3′) (SEQ ID NO:1) and conjugated with the cyanine dye, Cy3, before purification with oligonucleotide probe purification cartridges (Oerther et al. (2000b)). Fluorescently labeled probes were diluted to 50 ng/μL with RNase-free water and stored at −20° C. in the dark. Fixed samples were applied to a sample well on a 10 well Heavy Teflon Coated microscope slide (Cel-Line Associates, New Field, N.J.) and air-dried. After dehydration with an increasing ethanol series (50, 80, 95% [vol/vol] ethanol, 1 min each), each sample well was covered with a mixture of 18 μL of hybridization buffer (20% [vol/vol] formamide, 0.9 M NaC1, 100 mM Tris HCl [pH 7.0], 0.1% SDS) (DelosReyes et al. (1997)) and 2 μL of the stock fluorescently labeled oligonucleotide probe. The hybridizations were conducted in a moisture chamber containing excess hybridization buffer (to prevent dehydration of buffer on sample wells) for 1.5 h, in the dark, at 46° C. The slides were washed for 30 min at 48° C. with 50 mL of pre-warmed washing buffer solution (215 mM NaCl, 20 mM Tris HCl [pH 7.0], 0.1% SDS, and 5 mM EDTA) (DelosReyes et al. (1997)). Fixed, hybridized cells were mounted with Type FF immersion oil (Cargille, Cedar Grove, N.J.) and a cover slip. Cells were stained with 4′, 6-diamidino-2-phenylindole (DAPI) at a concentration of 1 μg/mL for 1 minute and rinsed with DI water.
(§4) Image Capture. Whole cell fluorescence was visualized with an upright epiflourescence microscope (Leitz DiaPlan, Heerbrugg, Switzerland), and digital images were captured using a Spot-FLEX charge coupled device (CCD) camera (Diagnostic Instruments, Inc., Sterling Heights, Mich.). Images were collected using a 100× oil objective and constant exposure time (1.1 sec for experiment I; 3.0 sec for experiment 2) and gain of 2.

A. baumannii CBD1311 = assay: as above; type: cell-based, Acinetobacter baumannii; details: 30 minutes of antibiotic exposure; for dF/dtcm (rate of ribosome synthesis): doxycycline 8 μg/mL or levofloxacin 2 μg/mL
Description: as §1, §2, §3, §4

[3] = test system: Acinetobacter baumannii CBD1311; assay: Minimum inhibitory concentration (MIC) determination; type: cell-based; details: A. baumannii CBD1311
[4] = test system: Acinetobacter baumannii^T; assay: as above; type: cell-based; details: ATCC19606, A. baumannii^T, ATCC 19606
A. baumannii^T [5] = assay: Growth of antibiotic treated culture by optical density (OD); type: cell-based, Acinetobacter baumannii; details: susceptible strain; levofloxacin 2 μg/mL
Description: Culturing. Four Acinetobacter strains (Table 1) were maintained on nutrient agar (Difco) at 35° C. Prior to each experiment, a single colony was used to inoculate an overnight culture of nutrient broth (Difco). Experimental cultures were prepared by transferring 1 mL of culture to a flask containing 100 mL of nutrient broth. The relationship between optical density (OD at 600 nm) and cell concentration (CFU/mL) was determined by collecting samples between an OD of 0.1 and 0.6. The samples were serially diluted (10^−4-10^−7) in sterile nutrient broth and 100 μL of diluted sample was spread on nutrient agar plates in replicates of 5. After 24 hours of incubation at 35° C., colonies were counted on plates which contained between 20 and 200 colonies.
To test the effects of the antibiotic doxycycline, doxycycline (Fisher Scientific) stock solution (1 mg/mL) was added to 100-mL of fresh, sterile nutrient broth for a final concentration of 8 μg/mL. A sample from an actively growing culture (10 mL) was added to the doxycycline/nutrient broth for a final volume of 110 mL. The aforementioned transfers were performed for both the resistant strain A. baumannii CBD1311 (OD=0.378) and a susceptible strain A. baumannii^T (OD=0.324). […]

[6] = test system: Acinetobacter lwoffii (ATCC 15309); assay: Optical density of antibiotic treated batch cultures; type: cell-based; details: experimental batch culture compared to control
Description: Acinetobacter lwoffii (ATCC 15309) was cultured on nutrient agar plates inoculated from a frozen glycerol/bead stock. After incubation for 24 hours at 32° C., a single colony was removed from the plate with a sterile loop and streaked on a second nutrient agar plate. The sterile loop was then submerged in a test tube containing 10 mL of […] which was incubated for 12 hours and 1 mL of grown culture was added to 1 mL of 4% paraformaldehyde (PFA) and incubated for 1 hour. The sample was then centrifuged at 10,000 G for 5 minutes, the supernatant decanted, and the cell pellet resuspended in ethanol PBS. Fluorescence in situ hybridization (FISH) with a genus specific probe was performed on this sample to verify culture purity before proceeding with the experiment. After culture purity was verified, the plated culture was incubated for 24 hours and a single colony was picked with a sterile loop and transferred to a 10 mL test tube of nutrient broth and incubated for 14 hours. The primary culture for this experiment was inoculated by transferring 1 mL from the test tube to a 100 mL nutrient broth flask. The optical density (OD at wavelength of 600 nm) of the culture was monitored over time until OD=0.449. […] These samples were then centrifuged at 10,000 G for 5 minutes, the supernatant decanted and cell pellets resuspended in ethanol PBS and stored at −20° C. until evaluated by FISH.

[7] = antibiotic exposure 30 min, ampicillin 2 μg/mL, ciprofloxacin 0.25 μg/mL, doxycycline 500 μg/mL
[8] = 90 minutes of antibiotic exposure, doxycycline 8 μg/mL or levofloxacin 2 μg/mL

| Structure (SMILES) | dF/dt [1, 7] | dF/dt ([1]; antibiotic exposure 90 min) | dF/dt ([1]; antibiotic exposure 150 min) | dF/dt ([1]; antibiotic exposure 210 min) | effect on ribosome synthesis [1] | dF/dtcm (rate of ribosome synthesis) (A. baumannii^T [2]; [8]) | dF/dtcm (rate of ribosome synthesis) (A. baumannii CBD1311) | MIC [3] [µg/mL] | ratio of dF/dt compared to the control ([1]; antibiotic exposure 30 min) [%] | ratio of dF/dt compared to the control ([1]; antibiotic exposure 90 min) [%] | ratio of dF/dt compared to the control ([1]; antibiotic exposure 210 min) [%] | MIC [4] [µg/mL] | also measured |
| --- | --- | --- | --- | --- | --- | --- | --- | --- | --- | --- | --- | --- | --- |
| O=C(O)c1cn(C2CC2)c2cc(N3CCNCC3)c(F)cc2c1=O [Ciprofloxacin] | 4.46 | 2.42 | 0.254 | 0.308 | appear to not be synthesizing ribosomes after 150 min | – | – | – | – | – | – | – | – |
| C[C@H]1c2cccc(O)c2C(=O)C2=C(O)[C@]3(O)C(=O)C(C(N)=O)=C(O)[C@@H](N(C)C)[C@@H]3[C@@H](O)[C@@H]21 [doxycycline] | 0.1238 | 0 | 0 | 0 | – | 1.38 | 4.95 | 16 (≈ 36 µM) | 2 | 0 | 0 | ≤ 0.125 | initial mean whole cell fluorescence (A. baumannii^T [2]; 30 minutes of antibiotic exposure): 59.6; initial mean whole cell fluorescence (A. baumannii CBD1311; prior to chloramphenicol, 8-bit intensity): approximately 26 |
| C[C@H]1COc2c(N3CCN(C)CC3)c(F)cc3c(=O)c(C(=O)O)cn1c23 [levofloxacin] | – | – | – | – | – | 1.67 | 5.84 | 8 (≈ 22.1 µM) | – | – | – | 0.25 (≈ 0.692 µM) | dF/dtcm (rate of ribosome synthesis) (A. baumannii^T [2]; 30 minutes of antibiotic exposure, doxycycline 8 μg/mL or levofloxacin 2 μg/mL): 2.23; initial mean whole cell fluorescence (A. baumannii^T [2]; 90 minutes of antibiotic exposure): 71; reduction in dF/dtcm compared to the control (A. baumannii^T [2]; 90 minutes of levofloxacin exposure): > 50%; dF/dtcm (rate of ribosome synthesis) (A. baumannii^T [2]; after 60 minutes of exposure to levofloxacin (so in the source), 2 μg/mL): 1.67; delay before cessation of growth (A. baumannii^T [5]): 60 min |
| CC1(C)S[C@@H]2[C@H](NC(=O)[C@H](N)c3ccccc3)C(=O)N2[C@H]1C(=O)O [Ampicillin] | 4.7 | 5.06 | 2.86 | 0 | impacted by the ampicillin after exposure for 150 and 210 min; also recorded: greater dF/dt than the control cells | – | – | – | 93 | 152 | 0 | – | cell morphology ([1]; long exposures (T=150 min)): elongated cells; impact on optical density [6]: mild impact |

Reference: US20110151455A1, “Fish-ribosyn for antibiotic susceptibility testing” (University of South Florida, priority 2006, published 2011)
